Measurements published in US5869489A, “Trypthophan ureas as neurokinnin antagonists” (Merck & Co., Inc., priority 1997, dated 1999).

Experiments:
human NK1R = target: T1, human NK1R (Homo sapiens, UniProt P25103); assay: Binding assay of human NK1R expressed in COS or CHO cells, displacement of 125I-substance P (Table 1, hNK1); details: human NK1 receptor, 125I-substance P ligand; read-out: hNK1 (IC50 nM)
T1 construct: expressed in transfected cells
Protocol: (§1) A. Receptor Expression in COS
(§2) To express the cloned human neurokinin-1 receptor (NK 1R) transiently in COS, the cDNA for the human NK 1R was cloned into the expression vector pCDM9 which was derived from pCDM 8 (INVITROGEN) by inserting the ampicillin resistance gene (nucleotide 1973 to 2964 from BLUESCRIPT SK+) into the Sac II site. Transfection of 20 μg of the plasmid DNA into 10 million COS cells was achieved by electroporation in 800 μl of transfection buffer (135 mM NaCl, 1.2 mM CaCl2, 1.2 mM MgCl2, 2.4 mM K2 HPO4, 0.6 mM KH2 PO4, 10 mM glucose, 10 mM HEPES pH 7.4) at 260 V and 950 uF using the IBI GENEZAPPER (IBI, New Haven, Conn.). The cells were incubated in 10% fetal calf serum, 2 mM glutamine, 100 U/ml penicillin-streptomycin, and 90% DMEM media (GIBCO, Grand Island, N.Y.) in 5% CO2 at 37° C. for three days before the binding assay. Similar methods were used to express the NK2 receptor.
(§3) B. Stable Expression in CHO
(§4) To establish a stable cell line expressing the cloned human NK1R, the cDNA was subcloned into the vector pRcCMV (INVITROGEN). Transfection of 20 μg of the plasmid DNA into CHO cells was achieved by electroporation in 800 μl of transfection buffer suplemented with 0.625 mg/ml Herring sperm DNA at 300 V and 950 uF using the IBI GENEZAPPER (IBI). The transfected cells were incubated in CHO media (10% fetal calf serum, 100 U/ml pennicilin-streptomycin, 2 mM glutamine, 1/500 hypoxanthine-thymidine(ATCC), 90% IMDM media (JRH BIOSCIENCES, Lenexa, Kans.), 0.7 mg/ml G418 (GIBCO)) in 5% CO2 at 37° C. until colonies were visible. Each colony was separated and propagated. The cell clone with the highest number of human NK1R was selected for subsequent applications such as drug screening. Similar methods were used to express the human NK2 receptor.
(§5) C. Assay Protocol using COS or CHO The binding assay of human NK1R expressed in either COS or CHO cells is based on the use of ^125 I-substance P (^125 I-SP, from DU PONT, Boston, Mass.) as a radioactively labeled ligand which competes with unlabeled substance P or any other ligand for binding to the human NK1R. […] In the binding assay, 500 μl of cells were added to a tube containing 20 μl of 1.5 to 0.25 nM of ^125 I-SP and 5 μl of unlabeled substance P or any other test compound in DMSO. The tubes were incubated at 4° C. or at room temperature for 1 hour with gentle shaking. The bound radioactivity was separated from unbound radioactivity by GF/C filter (BRANDEL, Gaithersburg, Md.) which was pre-wetted with 0.1% polyethylenimine. The filter was washed with 3 ml of wash buffer (50 mM Tris pH 7.5, 5 mM MnCl2, 150 mM NaCl) three times and its radioactivity was determined by gamma counter. A similar assay was used for NK2 except ^125 I-NKA was used as the ligand.

human NK2 receptor = target: T2, human NK2 receptor (Homo sapiens, UniProt P21452); assay: Binding assay of NK2 receptor expressed in COS or CHO cells, displacement of 125I-NKA (Table 1, hNK2); details: human NK2 receptor, 125I-NKA ligand; read-out: hNK2 (IC50 nM)
T2 construct: expressed in transfected cells
T2 sequence (P21452 1-398): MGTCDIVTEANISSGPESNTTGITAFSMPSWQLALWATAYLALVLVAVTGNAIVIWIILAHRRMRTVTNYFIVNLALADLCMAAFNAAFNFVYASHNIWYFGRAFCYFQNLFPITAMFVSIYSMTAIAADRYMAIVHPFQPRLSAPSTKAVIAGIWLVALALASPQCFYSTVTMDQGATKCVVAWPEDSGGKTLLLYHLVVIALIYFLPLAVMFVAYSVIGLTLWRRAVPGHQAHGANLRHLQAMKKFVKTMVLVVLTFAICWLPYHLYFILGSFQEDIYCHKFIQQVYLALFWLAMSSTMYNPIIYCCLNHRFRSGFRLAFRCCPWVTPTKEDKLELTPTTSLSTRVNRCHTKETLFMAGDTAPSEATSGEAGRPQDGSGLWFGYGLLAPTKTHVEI
Protocol: as §1, §2, §3, §4, §5

T1 sequence (P25103 whole entry): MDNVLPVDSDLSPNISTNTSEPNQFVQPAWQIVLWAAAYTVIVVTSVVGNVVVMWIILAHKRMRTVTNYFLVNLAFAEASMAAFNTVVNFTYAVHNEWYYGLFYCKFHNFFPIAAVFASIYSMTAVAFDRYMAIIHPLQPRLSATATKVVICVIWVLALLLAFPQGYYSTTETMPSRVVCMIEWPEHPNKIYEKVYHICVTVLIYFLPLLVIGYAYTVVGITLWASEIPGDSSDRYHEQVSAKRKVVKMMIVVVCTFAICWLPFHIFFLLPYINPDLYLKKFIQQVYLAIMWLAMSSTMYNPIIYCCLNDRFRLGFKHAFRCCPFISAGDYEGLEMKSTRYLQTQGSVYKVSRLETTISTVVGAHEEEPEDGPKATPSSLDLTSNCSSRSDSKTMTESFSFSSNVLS

| IC50 (human NK1R) [nM] | IC50 (human NK2 receptor) [nM] | SMILES |
| --- | --- | --- |
| 70 | 40 | CS(=O)(=O)N1CC2(CCN(C(=O)N[C@@H](Cc3c[nH]c4ccccc34)C(=O)NCc3ccccc3)CC2)c2ccccc21 [Example 2, N-Benzyl-2-(S)-((1-methanesulfonyl-spiroindoline-3,4'-piperidino)-carbonyl-amino)-3-(3-indolyl)propionamide] |
| 20 | 12 | CN(Cc1ccccc1)C(=O)[C@H](Cc1c[nH]c2ccccc12)NC(=O)N1CCC2(CC1)CN(S(C)(=O)=O)c1ccccc12 [Example 5, N-Benzyl-N-methyl-2-(S)-((1-methanesulfonyl-spiroindoline-3,4'-piperidino)-carbonyl-amino)-3-(3-indolyl)propionamide] |
| 1 | 180 | CN(Cc1cc(Cl)cc(Cl)c1)C(=O)[C@H](Cc1c[nH]c2ccccc12)NC(=O)N1CCC2(CC1)CN(S(C)(=O)=O)c1ccccc12 [Example 27, N-(3,5-Dichlorophenyl)methyl-N-methyl-2-(S)-((1-methanesulfonyl-spiroindoline-3,4'-piperidino)-carbonyl-amino)-3-(3-indolyl)propionamide] |
| 60 | 50 | CN(Cc1ccccc1)C(=O)[C@H](Cc1c[nH]c2ccccc12)NC(=O)N1CCC(c2ccccc2)CC1 [Example 7] |
| 2 | 500 | Cc1cc(Cl)cc(CN(C)C(=O)[C@H](Cc2c[nH]c3ccccc23)NC(=O)N2CCC3(CC2)CN(S(C)(=O)=O)c2ccccc23)c1 [Example 29, N-((3-Chloro-5-methyl)phenyl)methyl-N-methyl-2-(S)-((1-methanesulfonyl-Spiroindoline-3,4'-piperidino)-carbonyl-amino)-3-(3-indolyl)propionamide] |
| 3 | > 300 | Cc1cc(C)cc(CN(C)C(=O)[C@H](Cc2c[nH]c3ccccc23)NC(=O)N2CCC3(CC2)CN(S(C)(=O)=O)c2ccccc23)c1 [Example 28, N-(3,5-Dimethylphenyl)methyl-N-methyl-2-(S)-((1-methanesulfonyl-spiroindoline-3,4'-piperidino)-carbonyl-amino)-3-(3-indolyl)propionamide] |
| 400 | 60 | CN(Cc1ccccc1)C(=O)[C@H](CCc1ccccc1)NC(=O)N1CCC2(CC1)CN(S(C)(=O)=O)c1ccccc12 [Example 34, N-Benzyl-N-methyl-2-(S)-((1-methanesulfonyl-spiroindoline-3,4'-piperidino)-carbonyl-amino)-4-phenylbutyramide] |
| 200 | 56 | O=C(NCCc1ccccc1)[C@H](Cc1c[nH]c2ccccc12)NC(=O)N1CCC2(CCc3ccccc32)CC1 [Example 19] |
| 200 | 180 | CN(Cc1ccccc1)C(=O)[C@@H](Cc1c[nH]c2ccccc12)NC(=O)N1CCC2(CC1)CN(S(C)(=O)=O)c1ccccc12 [Example 32, N-Benzyl-N-methyl-2-(R)-((1-methanesulfonyl-spiroindoline-3,4'-piperidino)-carbonyl-amino)-3-(3-indolyl)propionamide] |
| 80 | 16 | C[C@H](NC(=O)[C@H](Cc1c[nH]c2ccccc12)NC(=O)N1CCC2(CCc3ccccc32)CC1)c1ccccc1 [Example 21, N-(1(S)-Phenylethyl)-2(S)-((spiroindane-1,4'-piperidino)-carbonyl-amino)-3-(3-indolyl)propionamide] |
| 60 | 100 | CN(Cc1ccccc1)C(=O)[C@H](Cc1c[nH]c2ccccc12)NC(=O)N1CCN(Cc2ccccc2)CC1 [Example 10, N-Benzyl-N-methyl-2-(S)-((4-benzylpiperazino)-carbonyl-amino)-3-(3-indolyl)propionamide] |
| 300 | 60 | CN(Cc1ccccc1)C(=O)[C@H](COCc1ccccc1)NC(=O)N1CCC2(CC1)CN(S(C)(=O)=O)c1ccccc12 [Example 35, N-Benzyl-N-methyl-2-(S)-((1-methanesulfonyl-spiroindoline-1,4'-piperidino)-carbonyl-amino)-3-benzyloxypropionamide] |
| 1 | > 1000 | O=C(OCc1cc(C(F)(F)F)cc(C(F)(F)F)c1)[C@H](Cc1c[nH]c2ccccc12)NC(=O)N1CCC2(C=Cc3ccccc32)CC1 [Example 3, 3,5-Bistrifluoromethylbenzyl 2-(S)-((spiro-1H-indene-1,4'-piperidino)-carbonyl-amino)-3-(3-indolyl)propionate] |
| 50 | 8 | CN(Cc1ccccc1)C(=O)[C@H](Cc1c[nH]c2ccccc12)NC(=O)N1CCC2(CCc3ccccc32)CC1 [Example 4, N-Benzyl-N-methyl-2-(S)-((spiroindane-1,4'-piperidino)-carbonyl-amino)-3-(3-indolyl)propionamide] |
| 40 | 10 | CN(Cc1ccccc1)C(=O)[C@H](Cc1c[nH]c2ccccc12)NC(=O)N1CCC2(C=Cc3ccccc32)CC1 [Example 1, N-Benzyl-N-methyl-2-(S)-((spiro-1H-indene-1,4'-piperidino)-carbonyl-amino)-3-(3-indolyl)propionamide] |
| 300 | 200 | CN(Cc1ccccc1)C(=O)[C@H](Cc1ccccc1)NC(=O)N1CCC2(C=Cc3ccccc32)CC1 [Example 36, N-Benzyl-N-methyl-2-(S)-((spiroindine-1,4'-piperidino)-carbonyl-amino)-3-phenylpropionamide] |
| 60 | > 100 | CC(=O)NC1(c2ccccc2)CCN(C(=O)N[C@@H](Cc2c[nH]c3ccccc23)C(=O)N(C)Cc2ccccc2)CC1 [Example 9, N-Benzyl-N-methyl-2-(S)-(((4-phenyl-4-acetylamino)piperidino)-carbonyl-amino)-3-(3-indolyl)propionamide] |
| 60 | 65 | Cc1cccc(CNC(=O)[C@H](Cc2c[nH]c3ccccc23)NC(=O)N2CCC3(CCc4ccccc43)CC2)c1 [Example 17, N-(3-Methylbenzyl)-2-(S)-((spiroindane-1,4'-piperidino)-carbonyl-amino)-3-(3-indolyl)propionamide] |
| 100 | 15 | Cc1ccccc1CNC(=O)[C@H](Cc1c[nH]c2ccccc12)NC(=O)N1CCC2(CCc3ccccc32)CC1 [Example 16, N-(2-Methylbenzyl)-2-(S)-((spiroindane-1,4'-piperidino)-carbonyl-amino)-3-(3-indolyl)propionamide] |
| 30 | 15 | Cc1ccccc1N1CCN(C(=O)N[C@@H](Cc2c[nH]c3ccccc23)C(=O)N(C)Cc2ccccc2)CC1 [Example 13, N-Benzyl-N-methyl-2-(S)-((4-(2-methylphenyl)piperazino)-carbonyl-amino)-3-(3-indolyl)propionamide] |
| 7.5 | 127 | CN(Cc1cccc(C(F)(F)F)c1)C(=O)[C@H](Cc1c[nH]c2ccccc12)NC(=O)N1CCC2(CC1)CN(S(C)(=O)=O)c1ccccc12 [Example 26, N-(3-Trifluoromethylphenyl)methyl-N-methyl-2-(S)-((1-methanesulfonyl-spiroindoline-3,4'-piperidino)-carbonyl-amino)-3-(3-indolyl)propionamide] |
